Experimental data taken from US12534439B2, “Xanthohumol derivatives and methods for making and using” (Oregon State University, priority 2021, dated 2026).

Experiments:
HepG2 cells [1] = details: cited from earlier work
HepG2 cells [2] = assay: MTT cell viability assay in HepG2 cells; assay type: cell-based, human; details: 24 hours
Experimental: (§1) To assess the toxicity of 4-(5-(4-hydroxyphenyl)-1-methyl-1h-pyrazol-3-yl)-5-methoxy-2-(3-methylbut-2-en-1-yl)benzene-1,3-diol (XP), in vitro cell viability assays were performed on several cell lines. HepG2, 3T3L1 and C2Cl2 cells were exposed to XP and cell viability was assessed using an MTT assay. At concentrations lower than 50 μM, XP had no effect on the viability of the human liver cancer cell lines HepG2 and murine myoblast cell lines C2Cl2 with respect to the control treatment (FIGS. 11A-11B). […] This establishes that XP is safe to use in vivo at dosages similar to xanthohumol.
(§2) Cell Viability Assays. Cells were seeded in 96-well plates 24 hours prior to adding the compound. HepG2 cells were seeded at a density of 5×10^4 cells/mL and C2Cl2 at 1×10^4 cells/mL in order to reach 80% confluency at the beginning of the experiment. After 24 hours, the culture medium was replaced with fresh medium containing various concentrations ranging between 0 and 200 μM of XP. The cells were incubated in the presence of the compound for 24 hours, at which time, the MTT viability assay was carried as previously described. MTT was dissolved at 0.5 mg/mL in serum-free Dulbecco's modified Eagle's medium, filter-sterilized and 100 μL was added to the cells. The cells were incubated for 3 hours and then acidified with 100% isopropanol for 15 minutes before absorbance reading at 570 nm on a BioTek Synergy HT plate reader.

C2Cl2 cells = assay: MTT cell viability assay in C2Cl2 cells; assay type: cell-based, murine; details: 24 hours
Experimental: as §1
as §2, with “MTT was dissolved at 0.5 mg/mL in serum-free Dulbecco's modified Eagle's medium, filter-sterilized and 100 μL was added to the cells.” left out

[3] = test system: LPS-activated RAW 264.7 cells; assay: Nitric oxide (NO) assay, Griess reagent; assay type: cell-based; details: LPS 1 μg/mL, 24 hours
Experimental: Nitric Oxide (NO) Assay. NO secreted by LPS-activated RAW 264.7 cells into the culture medium was determined as nitrite by the Griess reagent. RAW 264.7 1 cells obtained from the American Type Culture Collection (Manassas, VA, USA) were cultured in DMEM supplemented with 2 mM glutamine, antibiotics (100 U/mL penicillin and 100 μg/mL streptomycin), and 10% heat-inactivated fetal bovine serum. The cells were initially grown in 75 cm^2 culture flasks at 37° C. in a humidified incubator with 5% CO2. After reaching 80% confluency, the cells were split by seeding them on 96-well plates (0.2 mL/well) at a density of 1.5×10^5 cells/mL. After a 24-hour incubation at 37° C., the cells were treated with LPS (1 μg/mL) with or without test compounds in various concentrations. Vehicle control cells were treated with dimethyl sulfoxide alone at a final concentration of 0.1%. Culture media from control and treated cells were collected after 24 hours of incubation and were frozen at −80° C. before analysis. For the determination of NO (as […]), […], aliquots of the thawed culture media were mixed with an equal volume of Griess reagent on a 96-well plate. […] The samples were incubated for 10 minutes at room temperature and then the absorbance was read at 550 nm using a SpectraMax 190 (Molecular Devices, Sunnyvale, CA) plate reader.

HFD-fed C57BL/6J mice = assay: Follow-up study: XP given after 4 weeks of HFD pre-conditioning (Example 8); assay type: in vivo; details: for Decrease in weight gain, average: between weeks 9 and 12, versus HFD without compound
Text: This example concerns the effects of administering 4-(5-(4-hydroxyphenyl)-1-methyl-1H-pyrazol-3-yl)-5-methoxy-2-(3-methylbut-2-en-1-yl)benzene-1,3-diol to mice after a pre-conditioning phase of 4 weeks during which animals were fed a high-fat diet (HFD) or a low-fat diet (LFD). Forty 9-week old wild-type (WT) male C57BL/6J mice were obtained from Jackson Laboratory (Bar Harbor, ME, USA). The mice were housed in ventilated cages under a 12-12-hr light-dark cycle. Of the 40 mice, 32 were fed a HFD (Dyets Inc., Bethlehem, PA, USA) containing 60%, 20% and 20% total calories from fat, carbohydrate and protein, respectively. The remaining 8 mice were fed a LFD (Dyets Inc., Bethlehem, PA, USA), containing 11%, 70% and 19% total calories from fat, carbohydrate and protein, respectively. XP was first dissolved in a mixture of oleic acid:propylene glycol:Tween 80 (0.9:1:1 by weight) before the solution was mixed into the HFD at a concentration of 0.066% to reach a dose of 60 mg/kg body weight/day. After 4 weeks of HFD feeding, the XP-containing HFD was given to 16 of the 32 HFD-pretreated mice for 8 weeks. Sixteen mice in HFD-pretreatment group received a HFD control diet that contained an identical amount of the mixture of oleic acid:propylene glycol:Tween 80 (0.9:1:1 by weight). The LFD-fed mice were continued on the LFD diet. Food intake and body weights were recorded weekly. The mice were euthanized at week 12.

[4] = listed as 4-(5-(4-hydroxyphenyl)-1-methyl-1H-pyrazol-3-yl)-5-methoxy-2-(3-methylbut-2-en-1)
[5] = listed as 4-(5-(4-hydroxyphenyl)-1-methyl-1h-pyrazol-3-yl)-5-methoxy-2-(3-methylbut-2-en-1)

In the case of `COc1cc(O)c(CC=C(C)C)c(O)c1C(=O)/C=C/c1ccc(O)cc1` [XN, xanthohumol], the Cytotoxic concentration (HepG2 cells [1]) is listed as “above 25 μM”.
For `COc1cc(O)c(CC=C(C)C)c(O)c1-c1cc(-c2ccc(O)cc2)n(C)n1` [XP, 4-(5-(4-hydroxyphenyl)-1-methyl-1H-pyrazol-3-yl)-5-methoxy-2-(3-methylbut-2-en-1-yl)benzene-1,3-diol], the “Concentration without effect on cell viability” value (from here on “Concentration without effect”) (HepG2 cells [2]) was “lower than 50 μM”, the “Concentration without effect” value (HepG2 cells [2]; [4]) was “up to 25 μM” and the “Concentration without effect” value (HepG2 cells [2]; [5]) was 1000 to 50000 nM. For the same molecule, the “Concentration without effect” value (C2Cl2 cells) was “lower than 50 μM”, the “Concentration without effect” value (C2Cl2 cells; [4]) was “up to 25 μM” and the “Concentration from which anti-inflammatory activity (decreased NO production) was displayed” value [3] was no less than 10 µM. For the same molecule, the “Weight gain versus control HFD-fed mice” value (HFD-fed C57BL/6J mice; 60 mg/kg body weight/day in HFD for 8 weeks after 4 weeks HFD) was “gained significantly less weight”, the “Decrease in weight gain, average” value (HFD-fed C57BL/6J mice) was “about 5%” and the “Decrease in weight gain, average” value (HFD-fed C57BL/6J mice; [5]) was 5%. The “Food intake versus control” value (HFD-fed C57BL/6J mice; mouse, in vivo) was “no difference”.
